Laboratory results from US20250032631A1, “ANTI-SEZ6 ANTIBODY DRUG CONJUGATES” (AbbVie Inc., priority 2022, published 2025).

Tests used:
Format in all cases: cell-based
SBC-5 = assay: SCLC cell viability assay (CellTiter-Glo), SBC-5; conditions: Homo sapiens, 72 h; SBC-5, 3 days; read-out: IC50, 50% cell growth inhibition
Method: (§1) SCLC cell lines NCI-H526 (“H526”), NCI-H524 (“H524”), NCI-H146 (“H146”), NCI-H1963 (“H1963”) and SW-1271 were obtained from the American Type Culture Collection (ATCC). COR-L95 cells were obtained from Millipore Sigma (#96020733). SBC-5 cells were obtained from the Japanese Collection of Research Bioresources Cell Bank (JCRB).
(§2) SCLC cell lines (shown in Table 2, column 1) were plated in white 384-well plates (Corning® 3765) at 1,000-2,000 cells/30 μl RPMI-1640 base media containing 10% heat-inactivated FBS (fetal bovine serum). Cell plates were incubated overnight at 37° C. in 5% CO2. Using a Tecan D300e Digital Dispenser, a dose response using a stock concentration of ADC or solution containing Example 1G and DMSO (dimethyl sulfoxide) was applied to the cells on day 0 and incubated for an additional 10 days (ADCs) or 3 days (Example 1G) at 37°° C. in 5% CO2. Samples were run in duplicate. Cell viability was assessed with the CellTiter-Glo™ Luminescent Cell Viability Assay (Promega, #G7570) according to the manufacturer's instructions, with the exception that the plates were shaken for 30 minutes prior to reading. Luminescence was read on the BioTek Synergy Neo2, and data was analyzed using GraphPad Prism software.

COR-L95 = assay: SCLC cell viability assay (CellTiter-Glo), COR-L95; conditions: 72 h; COR-L95, 3 days; read-out: IC50, 50% cell growth inhibition
Method: as §1, §2

SCLC cell lines = assay: SCLC cell viability assay, summary over the cell line panel; conditions: all SCLC cell lines tested, TOP1 inhibitor alone
Method: as §1
as §2, with “software. […]” for “software.”

NCI-H524 = assay: SCLC cell viability assay (CellTiter-Glo), NCI-H524; conditions: Homo sapiens, 72 h; NCI-H524, 3 days; read-out: IC50, 50% cell growth inhibition
Method: as §1, §2

[1] = tested on: A375 cells (malignant melanoma); assay: Cell proliferation (CellTiter-Glo luminescence), A375; conditions: Homo sapiens, A-375, read-out: EC50, TOP1i compound potency, A375
Excerpt: Proliferation of Calu-6 cells (lung adenocarcinoma) and A375 cells (malignant melanoma) were quantified using CellTiter-Glo® luminescence.

[2] = tested on: Calu-6 cells (lung adenocarcinoma); assay: Cell proliferation (CellTiter-Glo luminescence), Calu-6; conditions: Homo sapiens, Calu-6, read-out: EC50, TOP1i compound potency, Calu-6
Method: The effect of TOP1i drugs on cell viability was assessed by monitoring ATP presence for metabolically active cells. Proliferation of Calu-6 cells (lung adenocarcinoma) and A375 cells (malignant melanoma) were quantified using CellTiter-Glo® luminescence.

NCI-H146 = assay: SCLC cell viability assay (CellTiter-Glo), NCI-H146; conditions: Homo sapiens, 72 h; NCI-H146, 3 days; read-out: IC50, 50% cell growth inhibition
Method: as §1, §2

NCI-H526 = assay: SCLC cell viability assay (CellTiter-Glo), NCI-H526; conditions: Homo sapiens, 72 h; NCI-H526, 3 days; read-out: IC50, 50% cell growth inhibition
Method: as §1, §2

NCI-H1963 = assay: SCLC cell viability assay (CellTiter-Glo), NCI-H1963; conditions: Homo sapiens, 72 h; NCI-H1963, 3 days; read-out: IC50, 50% cell growth inhibition
Method: as §1, §2

SW-1271 = assay: SCLC cell viability assay (CellTiter-Glo), SW-1271; conditions: SW1271, 72 h; SW-1271, 3 days; read-out: IC50, 50% cell growth inhibition
Method: as §1, §2

CC[C@@]1(O)C(=O)OCc2c1cc1n(c2=O)Cc2c-1nc1cc3c(cc1c2C12CC(N)(C1)C2)OCO3 [Example 1G, (7S)-14-(3-aminobicyclo[1.1.1]pentan-1-yl)-7-ethyl-7-hydroxy-2H,10H-[1,3]dioxolo[4,5-g]pyrano[3′,4′:6,7]indolizino[1,2-b]quinoline-8,11(7H,13H)-dione]
IC50 (SBC-5): 1.26 nM
IC50 (COR-L95): 5.71 nM
IC50 in all cell lines (SCLC cell lines): sub-to low-nM
IC50 (NCI-H524): 1.68 nM
EC50 [1]: 0.5 nM
EC50 [2]: 0.57 nM
IC50 (NCI-H146): 21.6 nM
IC50 (NCI-H526): 0.2 nM
IC50 (NCI-H1963): 6.28 nM
IC50 (SW-1271): 2.49 nM
